Measured values as given in publication PMC11859074, “Exploring the Anticancer Potential of NO-Donor Oxadiazole Assemblies Against Malignant Pleural Mesothelioma” (Pharmaceutics, 2025).
Values joined by “and” are separate entries in the source; they are usually repeats but may differ in a detail not shown here. Equal entries are not always repeated. Where two headings read alike, the source gives them in different places.

Experiments:
[1] = test system: JU77 (human mesothelioma cell line); experiment: cells; format: cell-based; settings: for IC50: Homo sapiens, MTT assay, 72 h exposure; for SFJU77 (selectivity factor): IC50(MRC-5)/IC50(JU77); for times higher cytotoxicity in human MPM cells compared to human lung fibroblasts: 72 h
Method: (§1) AB1 (mouse malignant mesothelioma cell line) and JU77 (human mesothelioma cell line) were obtained from Cell Bank Australia; MRC-5 (human embryonic lung fibroblast cell line) was obtained from ATCC. […] Cells were grown in tissue culture flasks (75 cm^2 and 25 cm^2, SPL Life Sciences, Pocheon, South Korea). […] The cytotoxicity of compounds was determined using the MTT colorimetric test. Cells were harvested from culture flasks by trypsinization and seeded into Cellstar 96-well microculture plates at a seeding density of 6000 cells per well (6 × 10^4 cells per mL). After the cells were allowed to resume exponential growth for 24 h, they were exposed to drugs at different concentrations in media for 72 h. The tested compounds were diluted in the complete medium at the desired concentrations added to each well (100 μL) and serially diluted to other wells. After 72 h of exposure, the medium was replaced with MTT (5 mg mL^−1, 100 μL per well) and incubated for an additional 50 min. Subsequently, the medium was aspirated, and the purple formazan crystals formed in viable cells were dissolved in DMSO (100 μL per well). […] The evaluation was based on means from at least three independent experiments, each comprising three replicates per concentration level.

[2] = NO release assay (Griess assay, phosphate buffer with L-cysteine); settings: for NO Released (%) 1 h / NO Released (%) 24 h / NO Released (%) 48 h: % NO2− (μmol/μmol) relative to initial concentration (100 μM), L-cysteine; for NO Released (%) 1 h: phosphate buffer pH 7.4, 37 °C; for NO Released (%) 24 h: phosphate buffer pH 7.4, 24 h; for NO Released (%) 48 h: phosphate buffer pH 7.4, 48 h; for NO-donor capacity: Griess assay, time point not stated; for Fold Change 24 h/1 h: ratio of NO released at 24 h to 1 h; for Fold Change 48 h/1 h: ratio of NO released at 48 h to 1 h; for Fold Change 48 h/24 h: ratio of NO released at 48 h to 24 h
[3] = test system: AB1 and JU77 mesothelioma cell lines; experiment: cells; format: cell-based, mouse and human; settings: for IC50: MPM, range over AB1 and JU77, 72 h MTT, read-out: IC50 values in both cell lines
Method: as §1

[4] = test system: AB1 (mouse malignant mesothelioma cell line); experiment: MTT cytotoxicity assay, AB1 cells; format: cell-based; settings: 72 h exposure
Method: as §1

[5] = test system: MRC-5 (human embryonic lung fibroblast cell line); experiment: MTT cytotoxicity assay, MRC-5 cells; format: cell-based; settings: MRC5, 72 h exposure
Method: as §1

[6] = test system: JU77 (human mesothelioma cell line); set-up: method as in doi:10.1039/D4NJ02047B; settings: ref [33], cited from earlier work
[7] = test system: MRC-5 (human embryonic lung fibroblast cell line); set-up: method as in doi:10.1039/D4NJ02047B; settings: MTT assay, 72 h exposure; ref [33]; cited from earlier work
[8] = test system: AB1 (mouse malignant mesothelioma cell line); set-up: method as in doi:10.1039/D4NJ02047B; settings: MTT assay, 72 h exposure; ref [33]; cited from earlier work

SMILES	IC50 [1] [µM]	SFJU77 (selectivity factor) [1]	NO Released (%) 1 h [2]	NO Released (%) 24 h [2] [%]	NO Released (%) 48 h [2] [%]	NO-donor capacity [2] [%]	Fold Change 24 h/1 h [2]	Fold Change 48 h/1 h [2]	Fold Change 48 h/24 h [2]	IC50 [3] [µM]	IC50 [4] [µM]	IC50 [5] [µM]	SFJU77 (selectivity factor) ([6]; IC50(MRC-5)/IC50(JU77))	IC50 ([6]; MTT assay, 72 h exposure) [µM]	IC50 [7] [µM]	IC50 [8] [µM]	times higher cytotoxicity in human MPM cells compared to human lung fibroblasts [1]	cytotoxicity (in words) [3]	selectivity for cancer cells (in words) ([1]; MPM cells vs MRC-5 human lung fibroblasts)
N#Cc1c(-c2noc(-c3ccco3)n2)no[n+]1[O-] [Compound 2k, 3-Cyano-4-(5-(2-furyl)-1,2,4-oxadiazolyl)furoxan]	0.99 ± 0.13	1.5	73 ± 7%	97 ± 6	104 ± 12	> 100	1.3	1.4	1.1	0.87 to 1.8	1.4 ± 0.4	1.5 ± 0.3	–	–	–	–	–	–	–
Cc1ccc(-c2nc(-c3no[n+]([O-])c3C#N)no2)cc1 [Compound 2g, 3-Cyano-4-(5-(p-tolyl)-1,2,4-oxadiazolyl)furoxan]	3.1 ± 0.2	1.5	59 ± 1%	74 ± 6	81 ± 10	–	1.3	1.4	1.1	–	4.9 ± 1.4	4.8 ± 0.3	–	–	–	–	–	–	–
N.N.[Cl][Pt][Cl] [Cisplatin, cisplatin]	–	–	–	–	–	–	–	–	–	–	–	–	0.7	4.2 ± 0.5	3.1 ± 1.2	5.8 ± 1	–	–	–
N#Cc1c(-c2noc(-c3ccccc3)n2)no[n+]1[O-] [Compound 2a, 3-Cyano-4-(5-phenyl-1,2,4-oxadiazolyl)furoxan]	3.7 ± 1	1.0	50 ± 8%	59 ± 5	89 ± 6	–	1.2	1.8	1.5	–	3.4 ± 0.2	3.7	–	–	–	–	–	–	–
N#Cc1c(-c2noc(-c3cccc([N+](=O)[O-])c3)n2)no[n+]1[O-] [Compound 2c, 3-Cyano-4-(5-(3-nitrophenyl)-1,2,4-oxadiazolyl)furoxan]	1.2 ± 0.2	3.6	61 ± 8%	107 ± 8	107 ± 10	> 100	1.8	1.8	1.0	–	2.8 ± 0.5	4.3 ± 0.3	–	–	–	–	2.4-3.6 times	–	–
COCc1nc(-c2no[n+]([O-])c2C#N)no1 [Compound 2f, 3-Cyano-4-(5-(methoxymethyl)-1,2,4-oxadiazolyl)furoxan]	> 150	–	50 ± 7%	66 ± 11	71 ± 11	–	1.3	1.4	1.1	–	> 150	> 150	–	–	–	–	–	no cytotoxic effects	–
COc1ccc(-c2nc(-c3no[n+]([O-])c3C#N)no2)cc1 [Compound 2h, 3-Cyano-4-(5-(4-methoxyphenyl)-1,2,4-oxadiazolyl)furoxan]	2.9 ± 0.3	1.4	54 ± 6%	79 ± 5	86 ± 4	–	1.5	1.6	1.1	–	4.1 ± 0.7	4.2 ± 0.7	–	–	–	–	–	–	–
CCOc1no[n+]([O-])c1S(=O)(=O)c1ccccc1 [CHF-2363, 4-ethoxy-3-phenylsulphonylfuroxan, reference compound]	–	–	26 ± 10%	71 ± 4	77 ± 9	–	2.7	3.0	1.1	–	–	–	–	–	–	–	–	–	–
N#Cc1c(-c2noc(-c3ccccc3Cl)n2)no[n+]1[O-] [Compound 2j, 4-(5-(2-Chlorophenyl)-1,2,4-oxadiazolyl)-3-cyanofuroxan]	1.4 ± 0.2	2.4	53 ± 4%	80 ± 3	84 ± 2	–	1.5	1.6	1.1	–	2.1 ± 0.3	3.3 ± 0.3	–	–	–	–	2.4-3.6 times	–	–
N#Cc1c(-c2noc(-c3ccc([N+](=O)[O-])cc3)n2)no[n+]1[O-] [Compound 2b, 3-Cyano-4-(5-(4-nitrophenyl)-1,2,4-oxadiazolyl)furoxan]	2.7 ± 0.2	1.6	51 ± 11%	74 ± 1	80 ± 4	–	1.5	1.6	1.1	–	4.1 ± 0.9	4.4 ± 0.6	–	–	–	–	–	–	–
N#Cc1c(-c2noc(-c3ccncc3)n2)no[n+]1[O-] [Compound 2e, 3-Cyano-4-(5-(pyridin-4-yl)-1,2,4-oxadiazolyl)furoxan]	4.2 ± 0.8	1.1	53 ± 7%	87 ± 13	87 ± 11	–	1.6	1.6	1.0	–	7.9 ± 2	4.7 ± 0.3	–	–	–	–	–	–	low selectivity for cancer cells
N#Cc1c(-c2ncon2)no[n+]1[O-] [Compound 2l, 3-Cyano-4-(1,2,4-oxadiazolyl)furoxan]	5.4 ± 1.3	0.9	42 ± 5%	68 ± 8	72 ± 8	–	1.6	1.7	1.1	5.4 to 7	7 ± 1.3	4.6 ± 1	–	–	–	–	–	–	–
NC(=O)c1c(CO)no[n+]1[O-] [CAS-1609, 3-carbamoyl-4-(hydroxymethyl)furoxan, reference compound]	–	–	27% and 27 ± 3%	68 ± 6	73 ± 6	–	2.5	2.7	1.1	–	–	–	–	–	–	–	–	–	–
COc1ccc(-c2nc(-c3no[n+]([O-])c3C#N)no2)cc1OC [Compound 2i, 3-Cyano-4-(5-(3,4-dimethoxyphenyl)-1,2,4-oxadiazolyl)furoxan]	1.6 ± 0.4	2.5	54 ± 14%	82 ± 14	94 ±14	–	1.5	1.7	1.1	–	3.3 ± 0.7	4 ± 0.6	–	–	–	–	2.4-3.6 times	–	–
N#Cc1c(-c2noc(-c3ccccc3[N+](=O)[O-])n2)no[n+]1[O-] [Compound 2d, 3-Cyano-4-(5-(2-nitrophenyl)-1,2,4-oxadiazolyl)furoxan]	0.87 ± 0.07	2.5	69 ± 1%	86 ± 3	89 ± 3	–	1.2	1.3	1.0	0.87 to 1.8	1.8 ± 0.2	2.2 ± 0.2	–	–	–	–	2.4-3.6 times	–	–
